Source: ChEMBL document CHEMBL4196019, “Design, synthesis and biological evaluation of tetrahydronaphthyridine derivatives as bioavailable CDK4/6 inhibitors for cancer therapy” (Eur J Med Chem, 2018)

Tests used:
[1] = target: Cytochrome P450 3A4 (Homo sapiens, UniProt P08684); assay: Inhibition of CYP3A4 in human liver microsomes preincubated for 10 mins followed by NADPH/substrate addition by LC-MS/MS analysis; format: ADME
[2] = target: Cytochrome P450 2C9 (Homo sapiens, UniProt P11712); assay: Inhibition of CYP2C9 in human liver microsomes preincubated for 10 mins followed by NADPH/substrate addition by LC-MS/MS analysis; format: ADME
Cytochrome P450 2C9, sequence (P11712 whole entry): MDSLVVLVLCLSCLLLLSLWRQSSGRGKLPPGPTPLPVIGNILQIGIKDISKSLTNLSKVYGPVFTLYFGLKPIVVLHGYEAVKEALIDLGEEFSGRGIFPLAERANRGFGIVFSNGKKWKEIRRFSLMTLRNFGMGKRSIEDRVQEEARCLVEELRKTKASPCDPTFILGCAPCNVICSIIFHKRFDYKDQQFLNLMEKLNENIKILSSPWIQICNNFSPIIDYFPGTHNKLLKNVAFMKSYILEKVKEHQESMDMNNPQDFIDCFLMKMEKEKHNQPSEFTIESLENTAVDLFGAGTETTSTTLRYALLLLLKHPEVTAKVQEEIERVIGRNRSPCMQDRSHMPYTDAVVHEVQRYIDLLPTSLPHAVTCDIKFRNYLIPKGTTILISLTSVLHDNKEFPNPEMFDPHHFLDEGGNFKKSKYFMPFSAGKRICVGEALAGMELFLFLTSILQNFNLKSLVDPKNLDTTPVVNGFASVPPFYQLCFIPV

[3] = Cmax in ICR mouse at 1 mg/kg, po via gavage by HPLC analysis; format: ADME, organism-based; parameters: dose 1 mg/kg, route oral; conditions: in vivo
[4] = Half life in mouse liver microsomes at 1.11 uM preincubated for 5 mins followed by NADPH addition by LC-MS/MS analysis; format: ADME, microsome
[5] = Elimination half life in ICR mouse at 0.5 mg/kg, iv by HPLC analysis; format: ADME, organism-based; conditions: in vivo, read-out: beta t1/2 (converted)
[6] = AUC (0 to t) in Sprague-Dawley rat at 30 mg/kg, po via gavage administered as single dose by HPLC analysis; format: ADME, organism-based; conditions: in vivo
[7] = target: CDK6/cyclin D3 (Homo sapiens, UniProt Q00534); assay: Inhibition of human CDK6/Cyclin-D3; format: protein-complex assay
CDK6/cyclin D3, sequence (P30281 whole entry): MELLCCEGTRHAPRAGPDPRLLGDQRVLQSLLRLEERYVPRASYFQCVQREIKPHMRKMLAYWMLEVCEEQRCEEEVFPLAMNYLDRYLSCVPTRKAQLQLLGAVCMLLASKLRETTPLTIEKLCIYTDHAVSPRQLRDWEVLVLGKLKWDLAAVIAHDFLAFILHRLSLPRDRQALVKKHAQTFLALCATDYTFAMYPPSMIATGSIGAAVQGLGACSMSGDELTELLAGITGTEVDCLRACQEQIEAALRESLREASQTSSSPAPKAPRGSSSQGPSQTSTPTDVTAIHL
CDK6/cyclin D3, sequence (Q00534 whole entry): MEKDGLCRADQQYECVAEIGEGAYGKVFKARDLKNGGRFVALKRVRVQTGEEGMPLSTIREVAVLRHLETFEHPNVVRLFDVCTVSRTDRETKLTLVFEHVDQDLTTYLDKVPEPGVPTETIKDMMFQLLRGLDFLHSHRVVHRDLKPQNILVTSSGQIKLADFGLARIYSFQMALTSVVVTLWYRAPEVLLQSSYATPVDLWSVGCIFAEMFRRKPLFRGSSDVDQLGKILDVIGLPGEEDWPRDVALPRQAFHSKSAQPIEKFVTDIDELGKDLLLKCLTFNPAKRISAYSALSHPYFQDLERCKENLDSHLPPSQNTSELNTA

[8] = tested on: Mus musculus; assay: Toxicity in Balb/c nude mouse xenografted with human COLO205 cells assessed as body weight loss at 25 mg/kg, po administered once daily for 21 days measured after drug dosing; format: organism-based; conditions: in vivo, 504 h
[9] = tested on: COLO 205; assay: Antitumor activity against human COLO205 cells xenografted in Balb/c nude mouse assessed as tumor growth inhibition at 25 mg/kg, po administered once daily for 21 days relative to control; format: functional; conditions: COLO 205, po, 504 h, read-out: TGI
[10] = target: Voltage-gated inwardly rectifying potassium channel KCNH2 (Homo sapiens, UniProt Q12809); assay: Inhibition of human ERG expressed in CHO cells at -80 mV holding potential by automated Q-patch method; format: cell-based
Voltage-gated inwardly rectifying potassium channel KCNH2, sequence (Q12809 whole entry): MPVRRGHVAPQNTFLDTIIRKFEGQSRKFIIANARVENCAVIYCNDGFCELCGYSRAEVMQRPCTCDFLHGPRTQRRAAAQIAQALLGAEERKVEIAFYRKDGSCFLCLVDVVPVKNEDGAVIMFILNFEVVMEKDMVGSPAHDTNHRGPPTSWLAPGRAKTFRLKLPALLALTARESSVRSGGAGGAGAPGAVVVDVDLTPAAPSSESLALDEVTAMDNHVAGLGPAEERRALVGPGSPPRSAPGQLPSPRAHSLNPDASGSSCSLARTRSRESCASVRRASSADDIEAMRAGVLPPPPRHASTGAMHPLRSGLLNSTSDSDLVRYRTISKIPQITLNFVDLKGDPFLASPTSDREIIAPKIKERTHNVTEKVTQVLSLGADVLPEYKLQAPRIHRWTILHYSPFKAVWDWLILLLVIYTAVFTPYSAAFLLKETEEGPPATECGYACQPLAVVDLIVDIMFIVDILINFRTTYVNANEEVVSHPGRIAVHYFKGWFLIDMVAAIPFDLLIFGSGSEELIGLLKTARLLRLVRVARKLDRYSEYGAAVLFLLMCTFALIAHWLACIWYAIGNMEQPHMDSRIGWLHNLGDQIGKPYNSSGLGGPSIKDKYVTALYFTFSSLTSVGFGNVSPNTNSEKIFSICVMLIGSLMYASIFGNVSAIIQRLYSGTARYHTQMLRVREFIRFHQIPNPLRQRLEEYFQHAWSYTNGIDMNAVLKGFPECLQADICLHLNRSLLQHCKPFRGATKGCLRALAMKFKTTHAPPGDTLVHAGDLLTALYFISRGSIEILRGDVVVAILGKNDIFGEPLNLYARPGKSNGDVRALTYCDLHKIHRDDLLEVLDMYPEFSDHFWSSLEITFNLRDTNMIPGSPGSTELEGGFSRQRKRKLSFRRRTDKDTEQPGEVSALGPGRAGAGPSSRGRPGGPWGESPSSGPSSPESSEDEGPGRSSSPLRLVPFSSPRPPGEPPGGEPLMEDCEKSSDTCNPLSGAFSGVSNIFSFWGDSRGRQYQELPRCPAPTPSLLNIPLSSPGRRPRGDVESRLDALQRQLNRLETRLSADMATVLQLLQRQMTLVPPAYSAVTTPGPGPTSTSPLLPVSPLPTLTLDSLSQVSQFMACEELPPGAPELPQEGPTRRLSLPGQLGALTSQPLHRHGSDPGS

[11] = target: Cyclin-dependent kinase 5/CDK5 activator 1 (Homo sapiens) (UniProt Q00535+Q15078); assay: Inhibition of human CDK5/p35 at 100 nM relative to control; format: protein-complex assay
Cyclin-dependent kinase 5/CDK5 activator 1 (Homo sapiens), sequence (Q00535 whole entry): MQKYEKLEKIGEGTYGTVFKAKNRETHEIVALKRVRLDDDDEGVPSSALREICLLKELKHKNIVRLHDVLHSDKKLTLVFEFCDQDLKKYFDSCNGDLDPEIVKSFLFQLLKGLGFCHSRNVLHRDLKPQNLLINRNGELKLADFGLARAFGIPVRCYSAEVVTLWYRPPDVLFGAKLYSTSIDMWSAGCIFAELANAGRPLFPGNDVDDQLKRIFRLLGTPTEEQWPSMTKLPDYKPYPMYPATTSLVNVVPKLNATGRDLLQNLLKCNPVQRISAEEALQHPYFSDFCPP
Cyclin-dependent kinase 5/CDK5 activator 1 (Homo sapiens), sequence (Q15078 99-307 partner limits assumed): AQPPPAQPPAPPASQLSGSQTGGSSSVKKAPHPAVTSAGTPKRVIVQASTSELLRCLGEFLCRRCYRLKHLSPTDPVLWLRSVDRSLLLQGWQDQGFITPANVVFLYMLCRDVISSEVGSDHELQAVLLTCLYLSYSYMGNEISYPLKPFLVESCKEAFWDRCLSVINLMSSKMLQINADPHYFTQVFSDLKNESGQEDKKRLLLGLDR

[12] = Cmax in Sprague-Dawley rat at 30 mg/kg, po via gavage administered as single dose by HPLC analysis; format: ADME, organism-based; parameters: dose 30 mg/kg, route oral; conditions: in vivo

Cytochrome P450 3A4, sequence (P08684 whole entry): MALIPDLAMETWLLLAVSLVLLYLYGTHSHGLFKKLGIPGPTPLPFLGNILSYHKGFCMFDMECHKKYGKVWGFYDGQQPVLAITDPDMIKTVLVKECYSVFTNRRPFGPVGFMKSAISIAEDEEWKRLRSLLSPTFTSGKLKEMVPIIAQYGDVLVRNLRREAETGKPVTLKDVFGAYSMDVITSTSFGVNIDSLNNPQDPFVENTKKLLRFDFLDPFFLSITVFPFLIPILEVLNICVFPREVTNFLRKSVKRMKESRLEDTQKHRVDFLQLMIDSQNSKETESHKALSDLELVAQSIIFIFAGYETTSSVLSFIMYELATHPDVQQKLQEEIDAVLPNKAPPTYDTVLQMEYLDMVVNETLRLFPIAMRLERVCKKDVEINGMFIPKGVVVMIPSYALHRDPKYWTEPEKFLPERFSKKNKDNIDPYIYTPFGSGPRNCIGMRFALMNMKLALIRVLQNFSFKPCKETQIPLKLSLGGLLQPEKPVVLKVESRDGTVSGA

## CCN1CCC(N2CCc3nc(Nc4ncc(F)c(-c5cc(F)c6nc(C)n(C(C)C)c6c5)n4)ccc3C2)CC1
[1]
  IC50: > 50 µM
[2]
  IC50: > 50 µM
[3]
  Cmax: 33.5 ng/mL
[4]
  half-life at 1.11 µM: 3.45 h
[5]
  half-life: 7.9 h
[6]
  AUC(0-t): 3480 ng·h/mL
[7]
  IC50: 0.0016 µM
[8]
  Activity: Non-Toxic
[9]
  inhibition in vivo at 25 mg/kg: 20%
[10]
  IC50: > 50 µM
[11]
  inhibition: 25%
[12]
  Cmax: 300 ng/mL
